These results are taken from patent US20160022751A1, “NOVEL COMPOSITION FOR TREATING ALZHEIMER'S DISEASE AND IMPROVING COGNITIVE FUNCTION OF ALZHEIMER'S PATIENTS” (GANGNEUNG-WONJU NATIONAL UNIVERSITY INDUSTRY ACADEMY …, priority 2014, published 2016).

Format in all cases: cell-based, mouse
Assay [1] relates to NGF. Put plainly: NGF mRNA expression in N2a cells (quantitative RT-PCR). Conditions: N2a cells (FIG. 13). From the text: (§1) Since NGF-Trk signal pathway upregulates ChAT and VAChT, it is important to know whether ginsenosides Rd and Re regulate Trk activity directly or at least indirectly. Therefore, the inventor investigated whether the expression of ChAT and VAChT was blocked by treating K252a, an inhibitor against protein kinase C (PKC) and Trk together with ginsenoside Rd or Re, in order to determine more closely whether the expression of cholinergic surface markers and the differentiation of neurons by the treatment of ginsenosides Rd and Re are caused whereby they act NGF-TrkA pathway directly. Particularly, N2a cells were treated with or without K252a (50 nM) in the presence of NGF (100 ng/mL), Re (5 μg/mL) or Rd (5 μg/mL) for 48 h. Total RNA and protein lysates were isolated as described in the Example 4-1 (FIG. 12). […] In addition, the present inventor performed quantitative RT-PCR in order to verify whether the treatment of ginsenosides Rd and Re affect the expression of NGF and NGFR in N2a cells.

Assay [2] relates to ChAT. Put plainly: ChAT expression in N2a cells with or without Trk inhibitor K252a. Conditions: K252a 50 nM, ginsenoside 5 μg/mL, 48 h (FIG. 12).
Excerpt: as §1

Assay [3] has as its system MAP-2. In words: MAP-2 mRNA expression in N2a cells (real-time RT-PCR). The note with it: 5 μg/ml (FIG. 8). On the procedure: (§2) Specifically, total RNA extracts from N2a cells were prepared using the Trizol method (Invitrogen, USA) and cDNA was synthesized from RNA by reverse transcription of 1 μg of total RNA using a reverse transcription system (Improm-II, Promega, USA) and oligo dT primers in a total volume of 20 μL. PCR amplification was performed using the primers described in Table 2 (Bioneer, Korea). Quantitative real-time PCR reactions were run on a Rotor-Gene 6000 (Corbett Research, Australia) using SensiMix™ SYBR Hi-ROX Kit (Bioline, U.K.) in 20 μL reaction mixtures. Each real-time-PCR master mix contained 10 μL 2× enzyme master mix, 7.0 μL RNase free water, 1 μL of each primer (10 pM each), and 1 μL diluted template. The PCR was performed with an initial pre-incubation step for 15 min at 95° C., followed by 45 cycles of 95° C. for 15 s, annealing at 52° C. for 15 s, and extension at 72° C. for 10 s. Melting curve analysis was used to confirm formation of the expected PCR product, and products from all assays were additionally tested with 1.2% agarose gel electrophoresis to confirm the correct lengths. […] Relative sample expression levels were calculated using Rotor-Gene 6000 Series Software 1.7, and were expressed relative to β-actin and corrected for between-run variability. Data for the experimental samples were expressed as a fold unit the internal control gene. […]

Assay [4] relates to Akt. In words: Akt phosphorylation in N2a cells (western blot). The note with it: compared with NGF (FIG. 10). The source says:
The cholinergic marker ChAT and VAChT are known activate the ERK and Akt lower level path for cholinergic gene expression (Williams et al., Neurosci. Lett., 413: 110-114, 2007; Madziar et al., J. Neurochem., 107: 1284-1293, 2007) by controlling the NGF-TrkA signaling pathway. Thus, the present inventor investigated whether ginsenosides Rd and Re regulate activity of ERK and Akt in N2a cells using through western blot analysis. Specifically, N2a cells were lysed in 1% radioimmunoprecipitation assay (RIPA) buffer containing protease and phosphatase inhibitors (Roche, Mannheim, Germany) and whole cell lysates were separated by 10% sodium dodecyl sulfate polyacrylamide gel electrophoresis (SDS-PAGE). After electrophoresis, proteins were transferred onto polyvinylidene fluoride (PVDF) membranes and the membranes were blocked with 5% skim milk in Tris-buffered saline solution containing 0.1% Tween-20. The membrane was then immunoblotted with primary antibodies, anti-phospho-Akt, anti-phospho-extracellular signal-regulated protein kinase (ERK), anti-ChAT and anti-f3-actin (Santa Cruz Biotechnology, Santa Cruz, USA), and this was followed by incubation with horseradish peroxidase-conjugated anti-rabbit or anti-mouse secondary antibodies (Stressgen, USA). Blots were developed using an enhanced chemiluminescence (ECL) solution (Thermo, USA).

Assay [5] concerns CHT1. In words: CHT1 expression in N2a cells. The note with it: N2a cells (FIG. 7E). The protocol: as §2
Assay [6] deals with acetylcholine. Put plainly: Acetylcholine content in culture medium of N2a cells (assay kit). Conditions: culture medium of N2a cells, 1, 2.5 and 5 μg/ml, 48 h (FIG. 7F). The protocol: Further, the present inventor measured contents of acetylcholine in culture medium of N2a cells treated with Rd and/or […] (1, 2.5 and 5 μg/ml) for 48 h using a commercial acetylcholine assay kit (Cell Biolabs, USA), based on the enzyme driven reaction that will detect acetylcholine via acetylcholine esterase enzyme and choline oxidase according to the manufacturer's instruction (FIG. 7F).

For assay [7], the system named is p75. Put plainly: p75 protein immunocytochemistry in N2a cells. Conditions: compared with NGF (FIG. 9B). The protocol: Followed by the RT-PCR analysis, the present inventor investigated whether ginsenosides Re and Rd induce the expression of MAP-2 and p75 and the differentiation of neurons actually, via immunocytochemistry and morphological analysis using optical microscopic observation.
Specifically, Cultured N2a cells were fixed in 4% paraformaldehyde (in PBS) for 15 min, washed twice with PBS supplemented with 100 mM glycine for 5 min, and incubated with permeabilization buffer consisting of 0.1% Triton X-100 (Sigma-Aldrich, USA) in PBS for 30 min at room temperature. Blocking was performed with 1% bovine serum albumin (BSA, Sigma-Aldrich, USA) for 30 min at room temperature. Then Microtubule-Associated Protein-2 (MAP-2) or VAChT mouse monoclonal antibody 1:200 (Santa Cruz Biotechnology, USA) was added to 1% BSA in PBS with Tween 20 (PBST) and incubated for 2 h at room temperature. Cells were then washed three times with PBS before fluorescein isothiocyanate (FITC)-conjugated anti-mouse immunoglobulin G (IgG) 1:200 (Cell Signaling Technology, USA) was added to 1% BSA for 1 h at room temperature. The cells were rinsed and counterstained with 4,6-diamidino-2-phenylindole (DAPI, Sigma-Aldrich) for 10 min, followed by two PBS washes. […]

`CC(C)=CCC[C@](C)(O[C@@H]1O[C@H](CO)[C@@H](O)[C@H](O)[C@H]1O)[C@H]1CC[C@]2(C)[C@@H]1[C@H](O)C[C@@H]1[C@@]3(C)CC[C@H](O)C(C)(C)[C@@H]3[C@@H](O[C@@H]3O[C@H](CO)[C@@H](O)[C@H](O)[C@H]3O[C@@H]3O[C@@H](C)[C@H](O)[C@@H](O)[C@H]3O)C[C@]12C` [ginsenoside Re]: the “NGF mRNA level” value in assay [1] is “significantly increased”. Also, the “ChAT expression on co-treatment with K252a compared with single treatment” value in assay [2] is “inhibited”. Also, the “expression of MAP-2 mRNA” value in assay [3] is on record as “significantly increased”. Moreover, the “Akt activation (phosphorylation)” value in assay [4] was “could activate ERK and Akt with phosphorylation as much as NGF”. The “expression of CHT1” value in assay [5] was “increased”. Also, the acetylcholine production entry in assay [6] is recorded as “increased significantly”. The p75 protein expression result in assay [7] is “switched to p75-positive N2a cells to the same or more extent as NGF”.

On to `CC(C)=CCC[C@](C)(O[C@@H]1O[C@H](CO)[C@@H](O)[C@H](O)[C@H]1O)[C@H]1CC[C@]2(C)[C@@H]1[C@H](O)C[C@@H]1[C@@]3(C)CC[C@H](O[C@@H]4O[C@H](CO)[C@@H](O)[C@H](O)[C@H]4O[C@@H]4O[C@H](CO)[C@@H](O)[C@H](O)[C@H]4O)C(C)(C)[C@@H]3CC[C@]12C` [ginsenoside Rd], for which the “NGF mRNA level” value in assay [1] is recorded as “significantly increased”. In assay [2], the “ChAT expression on co-treatment with K252a compared with single treatment” value was “inhibited”. The “expression of MAP-2 mRNA” value in assay [3] is “significantly increased”. The “Akt activation (phosphorylation)” value in assay [4] is “could activate ERK and Akt with phosphorylation as much as NGF”. Further, the “expression of CHT1” value in assay [5] is “increased”. Also, the acetylcholine production entry in assay [6] was “increased significantly”. Also, the p75 protein expression entry in assay [7] is “switched to p75-positive N2a cells to the same or more extent as NGF”.
